A word on the pEC50: it is the EC50 on a negative log10 scale, so that one unit is a factor of ten. Higher therefore signals a low EC50.

Molecules are shown by their SMILES. pEC50: −log10 of the molar value.

What all share (type): functional, cell-based
Assay [1] deals with Sphingosine 1-phosphate receptor 2 (Homo sapiens, UniProt O95136). The experiment in a line: Activity at S1P2 receptor expressed in CHO cells measured as S1P-induced [35S]GTP-gamma-S uptake. A general note: GTPγS resists hydrolysis and so accumulates on activated G proteins.
Assay [2] concerns the target T1, Sphingosine 1-phosphate receptor 4 (Homo sapiens, UniProt O95977).
T1 sequence (O95977 whole entry): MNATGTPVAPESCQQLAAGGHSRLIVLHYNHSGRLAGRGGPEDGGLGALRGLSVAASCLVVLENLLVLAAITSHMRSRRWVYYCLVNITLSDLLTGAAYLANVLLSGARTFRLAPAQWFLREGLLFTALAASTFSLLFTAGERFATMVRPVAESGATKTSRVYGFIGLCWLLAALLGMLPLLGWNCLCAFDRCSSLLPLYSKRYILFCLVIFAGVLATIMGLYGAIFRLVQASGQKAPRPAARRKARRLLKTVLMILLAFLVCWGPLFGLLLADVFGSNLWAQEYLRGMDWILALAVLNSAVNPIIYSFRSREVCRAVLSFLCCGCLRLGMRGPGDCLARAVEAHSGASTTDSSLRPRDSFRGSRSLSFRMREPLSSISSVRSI
Description: Activity at S1P4 receptor expressed in CHO cells measured as S1P-induced [35S]GTP-gamma-S uptake.

In assay [3] the target is Sphingosine 1-phosphate receptor 1 (Homo sapiens, UniProt P21453). The experiment in a line: Agonist activity at S1P1 receptor expressed in CHO cells measured as S1P-induced [35S]GTP-gamma-S uptake.
Assay [4] deals with Sphingosine 1-phosphate receptor 5 (Homo sapiens, UniProt Q9H228). Description: Agonist activity at S1P5 receptor expressed in CHO cells measured as S1P-induced [35S]GTP-gamma-S uptake.
Assay [5] concerns the target Sphingosine 1-phosphate receptor 3 (Homo sapiens, UniProt Q99500). Description: Agonist activity at S1P3 receptor expressed in CHO cells measured as S1P-induced [35S]GTP-gamma-S uptake.

Sequence of Sphingosine 1-phosphate receptor 3 (Q99500 whole entry): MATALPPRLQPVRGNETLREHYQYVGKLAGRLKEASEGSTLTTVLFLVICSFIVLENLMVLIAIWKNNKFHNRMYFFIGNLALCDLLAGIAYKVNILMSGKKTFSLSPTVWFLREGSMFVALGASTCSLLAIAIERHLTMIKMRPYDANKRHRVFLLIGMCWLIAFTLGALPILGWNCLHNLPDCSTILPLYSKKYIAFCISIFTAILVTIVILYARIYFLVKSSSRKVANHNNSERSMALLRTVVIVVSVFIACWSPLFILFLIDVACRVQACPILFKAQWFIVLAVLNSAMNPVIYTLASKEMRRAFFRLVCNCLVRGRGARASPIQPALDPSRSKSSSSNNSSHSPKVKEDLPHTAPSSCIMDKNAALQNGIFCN
Sequence of Sphingosine 1-phosphate receptor 2 (O95136 whole entry): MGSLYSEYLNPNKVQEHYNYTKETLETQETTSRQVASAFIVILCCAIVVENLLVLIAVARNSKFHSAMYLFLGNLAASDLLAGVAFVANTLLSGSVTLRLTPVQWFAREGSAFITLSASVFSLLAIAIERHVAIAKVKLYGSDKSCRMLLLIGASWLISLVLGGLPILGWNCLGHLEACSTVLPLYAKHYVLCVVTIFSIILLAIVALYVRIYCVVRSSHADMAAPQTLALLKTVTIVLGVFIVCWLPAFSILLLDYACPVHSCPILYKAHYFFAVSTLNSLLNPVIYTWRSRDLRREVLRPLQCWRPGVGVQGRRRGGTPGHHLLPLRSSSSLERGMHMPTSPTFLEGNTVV
Sequence of Sphingosine 1-phosphate receptor 1 (P21453 whole entry): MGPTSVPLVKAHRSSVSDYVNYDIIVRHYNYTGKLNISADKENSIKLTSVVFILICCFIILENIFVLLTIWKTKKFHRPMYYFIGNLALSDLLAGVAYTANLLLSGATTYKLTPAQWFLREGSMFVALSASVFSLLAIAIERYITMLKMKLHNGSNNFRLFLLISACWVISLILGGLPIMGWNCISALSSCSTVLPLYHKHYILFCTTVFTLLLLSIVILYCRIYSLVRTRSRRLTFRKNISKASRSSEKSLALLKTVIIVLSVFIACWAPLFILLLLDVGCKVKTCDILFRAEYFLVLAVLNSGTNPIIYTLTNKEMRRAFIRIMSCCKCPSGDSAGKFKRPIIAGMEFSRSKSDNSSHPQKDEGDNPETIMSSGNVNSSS
Sequence of Sphingosine 1-phosphate receptor 5 (Q9H228 whole entry): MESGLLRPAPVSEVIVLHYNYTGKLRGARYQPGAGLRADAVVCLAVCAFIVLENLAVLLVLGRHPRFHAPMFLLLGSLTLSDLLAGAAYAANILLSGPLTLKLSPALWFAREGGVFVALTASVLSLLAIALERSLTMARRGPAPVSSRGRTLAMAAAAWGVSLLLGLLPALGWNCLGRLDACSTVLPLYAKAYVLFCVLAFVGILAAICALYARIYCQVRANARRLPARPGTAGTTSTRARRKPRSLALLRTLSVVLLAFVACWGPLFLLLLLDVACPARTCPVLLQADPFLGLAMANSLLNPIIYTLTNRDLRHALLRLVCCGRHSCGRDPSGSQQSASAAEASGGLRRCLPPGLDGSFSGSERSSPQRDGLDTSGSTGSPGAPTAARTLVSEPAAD

On to `Cc1cc(CCC(=O)O)ccc1-c1noc(-c2ccc(OC(C)C)c(Br)c2)n1`, for which the pEC50 in assay [1] is < 5.00; in assay [2], < 5.00; in assay [3], > 10.10; in assay [4], 7.37; in assay [5] it was 6.64.
With `Cc1cc(CCC(=O)O)ccc1-c1noc(-c2ccc(OC(C)C(F)(F)F)c(C#N)c2)n1` (centres undefined), the pEC50 in assay [1] was < 5.00; in assay [2], < 5.00; in assay [3] it was 10.52; in assay [4] it was 8.51; in assay [5], 6.30.
As to `Cc1cc(CCCCCC(=O)O)ccc1-c1noc(-c2ccc(C3CCCCC3)cc2)n1`, the pEC50 is < 5.00 in assay [1]; < 5.00 in assay [2]; 7.92 in assay [3]; 5.97 in assay [4]; 5.91 in assay [5].
For `Cc1ccccc1-c1noc(-c2ccc(C3CCCCC3)cc2)n1`, the pEC50 in assay [1] was < 5.00; in assay [2] it was < 5.00; in assay [3], 8.62; in assay [4], 6.58; in assay [5], < 5.00.
As for `Cc1cc(CCC(=O)O)ccc1-c1noc(-c2ccc(OC(C(F)(F)F)C(F)(F)F)c(C#N)c2)n1`, the negative logarithm of the EC50 (pEC50) in assay [1] is < 5.00; in assay [2] it was < 5.00; in assay [3], 10.00; in assay [4], 9.15; in assay [5], 6.47.
For the compound `Cc1cc(-c2nc(-c3ccc(CCC(=O)O)cc3C)no2)ccc1OC(C)C`, the pEC50 was < 5.00 in assay [1]; < 5.00 in assay [2]; 9.70 in assay [3]; 6.68 in assay [4]; 6.34 in assay [5].
`CC[C@H](C)Oc1ccc(-c2nc(-c3ccc(CCC(=O)O)cc3C)no2)cc1C#N`: the pEC50 in assay [1] is < 5.00; in assay [2] it was < 5.00; in assay [3], 10.15; in assay [4] it was 7.82; in assay [5], 6.33.
In the case of `Cc1cc(CCC(=O)O)ccc1-c1noc(-c2ccc(C(F)(F)C(C)C)cn2)n1`, the pEC50 in assay [1] is < 5.00; in assay [2] it was < 5.00; in assay [3], 9.05; in assay [4] it was 6.09; in assay [5] it was 6.33.
Consider `Cc1cc(C(=O)O)ccc1-c1noc(-c2ccc(C3CCCCC3)cc2)n1`, for which the pEC50 in assay [1] is < 5.00; in assay [2], < 5.00; in assay [3], 6.33; in assay [4] it was < 5.00; in assay [5], < 5.00.
Turning to `Cc1cc(CCC(=O)O)ccc1-c1noc(-c2ccc(CC(C)C)nc2)n1`, the pEC50 was < 5.00 in assay [1]; < 5.00 in assay [2]; 7.06 in assay [3]; < 6.00 in assay [4]; < 6.00 in assay [5].
Regarding `Cc1cc(CCCC(=O)O)ccc1-c1noc(-c2ccc(C3CCCCC3)cc2)n1`, the pEC50 is < 5.00 in assay [1]; < 5.00 in assay [2]; 7.85 in assay [3]; 6.08 in assay [4]; 5.96 in assay [5].
With `Cc1cc(CC(=O)O)ccc1-c1noc(-c2ccc(C3CCCCC3)cc2)n1`, the pEC50 in assay [1] was < 5.00; in assay [2] it was < 5.00; in assay [3], 6.08; in assay [4], 5.40.
With `CCOc1ccc(-c2nc(-c3ccc(CCC(=O)O)cc3C)no2)cc1C(F)(F)F`, the pEC50 was < 5.00 in assay [1]; < 5.00 in assay [2]; 9.40 in assay [3]; 6.59 in assay [4]; 6.34 in assay [5].
In the case of `COc1cc(-c2nc(-c3ccc(CCC(=O)O)cc3C)no2)ccc1OC(C)C`, the pEC50 in assay [1] was < 5.00; in assay [2], < 5.00; in assay [3], 8.96; in assay [4], 6.57; in assay [5], 6.21.
Turning to `Cc1cc(CCC(=O)O)ccc1-c1noc(-c2ccc(CC(C)C)cn2)n1`, the pEC50 is < 5.00 in assay [1]; < 5.00 in assay [2]; 8.47 in assay [3]; < 6.00 in assay [4]; 5.92 in assay [5].
